Tests used:
N-WASP = N-WASP (Homo sapiens, UniProt O00401); conditions: Peterson et al., 2004; cited from earlier work
WASP = target: T1, WASP (Homo sapiens, UniProt P42768); conditions: cited from earlier work
T1 sequence (P42768 1-502): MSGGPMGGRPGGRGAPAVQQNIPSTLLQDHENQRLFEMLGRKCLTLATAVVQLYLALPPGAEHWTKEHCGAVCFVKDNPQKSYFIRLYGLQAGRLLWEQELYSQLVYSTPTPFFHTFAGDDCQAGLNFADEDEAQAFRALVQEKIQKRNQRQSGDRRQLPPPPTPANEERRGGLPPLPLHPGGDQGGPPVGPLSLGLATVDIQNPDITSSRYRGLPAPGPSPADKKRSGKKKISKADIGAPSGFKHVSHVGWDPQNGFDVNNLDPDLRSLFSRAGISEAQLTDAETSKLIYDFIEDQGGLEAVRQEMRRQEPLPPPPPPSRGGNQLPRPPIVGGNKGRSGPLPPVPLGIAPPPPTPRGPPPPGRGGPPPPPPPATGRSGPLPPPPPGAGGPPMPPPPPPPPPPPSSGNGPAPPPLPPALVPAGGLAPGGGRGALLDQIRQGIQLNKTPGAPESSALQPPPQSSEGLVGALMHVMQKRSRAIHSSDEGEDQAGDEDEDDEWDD

[1] = tested on: intracellular levels of ATP; conditions: non-specific effects; cited from earlier work
MTLn3 = assay: 3D collagen invasion assay of MTLn3 carcinoma cells (macrophage co-culture or BMM conditioned media); assay type: cell-based; conditions: KO CM with exogenously added 25 nM EGF (FIG. 2C)
Description: FIG. 1A-1D. WASP is required for macrophage-dependent breast carcinoma cell invasion. (A) Schematic illustration of the 3D invasion assay. (B) X-Z reconstruction of confocal images of 3D invasion assay using celltracker green labeled carcinoma cells (MTLn3) cultured on their own or co-cultured with celltracker red labeled primary bone marrow derived macrophages (BMM) isolated from either wild type (WT) or WASP knockout (WASP−/−) mice. Dotted line indicates the arbitrary threshold for measuring invasion at 20 μm (˜2 cell diameter). Quantification of cell tracker dye labeled (C) macrophage and (D) MTLn3 invasion. Fluorescence from cells was recorded at 5 μm step size. Collagen invasion is plotted as fraction of cells where fluorescence intensities above 20 μm are divided by total fluorescence from the entire stack (n=3 mice per genotype, age and sex matched). […]
FIG. 2A-2C. […] (A) Quantification of the MTLn3 invasion by MTLn3 cells alone, in response to wildtype BMM conditioned media (WT-CM) or conditioned media from WASP deficient mice (+KO CM) p<** 0.01 ***0.001 compared to wild-type macrophage conditioned media (WT CM). (B) Quantification of the MTLn3 invasion by MTLn3 cells alone, with wildtype BMM conditioned media (WT-CM) alone or with control IgG (Ctrl IgG) or with two different neutralizing anti-EGF antibodies generated in goat or rabbit (nEGF-G or nEGF-R). […]

MTLn3 tumor = assay: in vivo needle invasion assay; set-up: species or system mice; conditions: needle with EGF vs buffer, 4 hours (FIG. 6)
Experimental: FIG. 6A-6B. WASP is required for macrophage dependent carcinoma cell invasion in vivo. (A) Schematic illustration of in vivo invasion assay. (B) Quantification of the number of cells collected into the needle after 4 hours with EGF or without EGF (buffer) from wildtype, WASP+/− or WASP−/− mice bearing MTLn3 tumor. Cell counting was performed single blinded where the counter was not aware of the genotype of the mice. n=4 independent WT and 4 WASp−/− mice used) Error bars signify SEM. ** p<0.01 compared to buffer and EGF needle in WASP−/− mice.
The presence and absence of WASP in tumors was further characterized to determine the precise defect in the absence of WASP that led to reduced metastasis. […] Carcinoma cell invasiveness in the tumor was monitored and analyzed using a well established in vivo needle invasion assay that mimics the invasion of carcinoma cells into a blood vessel, according to Wyckoff et al. (Wyckoff, Segall et al. 2000). […] Additionally, a reduction was also observed in the motility of carcinoma cells in the tumors of WASP deficient mice as compared with control mice (FIG. 7).

N-WASP, sequence (O00401 whole entry, species assumed): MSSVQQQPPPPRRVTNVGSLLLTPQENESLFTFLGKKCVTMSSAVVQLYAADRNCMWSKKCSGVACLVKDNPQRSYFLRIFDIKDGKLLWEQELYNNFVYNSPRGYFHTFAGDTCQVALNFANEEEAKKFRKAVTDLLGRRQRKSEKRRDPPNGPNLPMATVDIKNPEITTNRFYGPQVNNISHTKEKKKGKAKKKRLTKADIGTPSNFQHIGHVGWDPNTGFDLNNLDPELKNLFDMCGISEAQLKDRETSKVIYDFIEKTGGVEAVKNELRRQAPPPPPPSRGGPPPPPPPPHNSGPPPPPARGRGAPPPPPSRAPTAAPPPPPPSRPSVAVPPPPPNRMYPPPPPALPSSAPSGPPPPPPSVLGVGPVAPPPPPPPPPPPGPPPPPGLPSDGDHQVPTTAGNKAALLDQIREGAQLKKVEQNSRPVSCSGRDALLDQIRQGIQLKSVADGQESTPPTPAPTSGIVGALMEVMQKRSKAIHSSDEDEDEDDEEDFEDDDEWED

CN(C)C[C@H](O)Cn1c2ccc(Br)cc2c2cc(Br)ccc21 (racemic) [wiskostatin]
inhibition of N-WASP (N-WASP): inhibitor of N-WASP
inhibition of WASP (WASP): also inhibits WASP
intracellular levels of ATP [1]: lowers the intracellular levels of ATP

EGF: epidermal growth factor, carcinoma cell chemoattractant (NSDSECPLSHDGYCLHDGVCMYIEALDKYACNCVVGYIGERCQYRDLKWWELR; UniProt P01133 971-1023, looked up)
MTLn3 invasion with WASP deficient BMM conditioned media (MTLn3): restored carcinoma cell invasion
number of carcinoma cells collected into needle (MTLn3 tumor; tumor bearing WASP-deficient mice): no difference in the number of cells collected
number of carcinoma cells collected into needle (MTLn3 tumor; tumor bearing control mice): significantly enhanced the number of carcinoma cells collected into a needle

Reference: patent US20120077734A1, “Methods and assays for treating conditions in which macrophages play a pathogenic role” (priority 2010, published 2012)
